US8946234B2, “Halogen-substituted compounds” (Bayer CropScience AG, priority 2008, dated 2015)
Where two headings read alike, the source gives them in different places.

Experiment: physchem
Type: physicochemical
Settings: for chromatographic logP: read-out: logP
Description: ^a) Note regarding the determination of the log P values and mass detection: The log P values given were determined in accordance with EEC Directive 79/831 Annex V.A8 by HPLC (High Performance Liquid Chromatography) on a phase inversion column (C18). Agilent 1100 LC system; 50*4.6 Zorbax Eclipse Plus C18 1.8 micron; eluent A: acetonitrile (0.1% formic acid); eluent B: water (0.09% formic acid); linear gradient from 10% acetonitrile to 95% acetonitrile in 4.25 min, then 95% acetonitrile for a further 1.25 min; oven temperature 55° C.; flow: 2.0 ml/min. The mass detection is carried out via an Agilend MSD system.

[1] = HPLC phase inversion (reversed-phase) C18 column, HPLC method a), eluent acetonitrile/water with formic acid

Row | SMILES | logP | other results
1 | O=C(NC1CC1)c1cc(NC(=O)c2cnc(C(F)(F)C(F)(F)C(F)(F)F)nc2C(F)(F)F)ccc1Cl [Ib-15] | 3.56^a) | 
2 | Cc1nc(C(F)(F)F)ncc1C(=O)Nc1ccc(Cl)c(C(=O)NCC(F)(F)F)c1 [Ib-20] | 2.65^a) | 
3 | CSc1c(Cl)cc(NC(=O)c2c(C(F)(F)F)c(C(F)(F)C(F)(F)F)nn2C)cc1C(=O)NCC(F)(F)F [Ik-203] | 4.15^a) | 
4 | O=C(NCC=CCl)c1cc(NC(=O)c2cnc(C(F)(F)C(F)(F)F)nc2C(F)(F)F)ccc1Cl [Ib-10] | 3.59^a) | 
5 | O=C(NCc1ccccc1)c1cc(NC(=O)c2nccc(C(F)(F)F)c2Cl)ccc1Cl [Ie-5] | 3.16^a) | 
6 | CC(C)(F)n1nc(C(F)C(F)(F)F)c(C(F)(F)F)c1C(=O)Nc1ccc(Cl)c(C(=O)NC2CC2)c1 (stereo not shown) [Ik-100] | 3.39^a) | 
7 | Cn1nc(C(F)(F)C(F)(F)F)c(C(F)(F)F)c1C(=O)Nc1ccc(Cl)c(C(=O)O)c1 [Ik-2, 2-Chloro-5-({[1-methyl-3-(pentafluoroethyl)-4-(trifluoromethyl)-1H-pyrazol-5-yl]carbonyl}amino)benzoic acid] |  | chromatographic logP [1]: 3.22; chromatographic logP (HPLC phase inversion (reversed-phase) C18 column, HPLC, method a)): 3.22
8 | CNC(=O)c1cc(NC(=O)c2ccc(C(F)(F)F)nc2C)ccc1Cl [Ir-5] | 1.97^a) | 
9 | Cn1nc(C(F)(F)F)c(Cl)c1C(=O)Nc1ccc(Cl)c(C(=O)NCC=CCl)c1 [Ik-19] | 3.22^a) | 
10 | Cn1nc(C(F)(F)F)c(Br)c1C(=O)Nc1ccc(Cl)c(C(=O)NC2CC2)c1 [Ik-21] | 2.75^a) | 
11 | Cn1nc(C(F)(F)C(F)(F)F)c(C(F)(F)F)c1C(=O)Nc1ccc(Cl)c(C(=O)NCCF)c1 [Ik-88] | 3.21^a) | 
12 | Cn1nc(C(F)(F)C(F)(F)F)c(C(F)(F)F)c1C(=O)Nc1ccc(F)c(C(=O)NC2CC2F)c1 (stereo not shown) [Ik-168] | 3.35^a) | 
13 | O=C(NC1CC1)c1cc(NC(=O)c2cnc(OCC(F)(F)C(F)(F)F)cc2C(F)(F)F)ccc1Cl [Ij-3] | 3.44^a) | 
14 | Cn1nc(C(F)(F)C(F)(F)F)c(C(F)(F)F)c1C(=O)Nc1cc(C(=O)NCC(F)(F)F)c(Cl)cc1F [Ik-144] | 3.73^a) | 
15 | Cn1nc(C(F)(F)C(F)(F)F)c(C(F)(F)F)c1C(=O)Nc1cc(Br)c(Cl)c(C(=O)NC2CC2)c1 [Ik-7] | 3.81^a) | 
16 | Cn1nc(C(F)(F)C(F)(F)F)c(C(F)(F)F)c1C(=O)Nc1cc(C(=O)NC2CC2)c(F)cc1F [Ik-145] | 3.32^a) | 
17 | Cn1nc(-c2ccc(OC(F)(F)F)cc2)c(Br)c1C(=O)Nc1ccc(Cl)c(C(=O)NCC(F)(F)F)c1 [Ik-255] | 4.15^a) | 
18 | O=C(NC1CC1)c1cc(NC(=O)c2ncc(Cl)cc2C(F)(F)F)ccc1Cl [5-chloro-N-[4-chloro-3-(cyclopropylcarbamoyl)phenyl]-3-(trifluoromethyl)pyridine-2-carboxamide] |  | chromatographic logP [1]: 2.55
19 | Cn1nc(C(F)(F)C(F)(F)F)c(C(F)(F)F)c1C(=O)Nc1cc(Cl)c(I)c(C(=O)NCc2ccccc2)c1 [Ik-205] | 4.45^a) | 
20 | Cn1nc(C(F)(F)C(F)(F)F)c(C(F)(F)F)c1C(=O)Nc1cc(Br)c(I)c(C(=O)NC2CC2)c1 [Ik-210] | 3.92^a) | 
21 | Cn1nc(C(F)(F)C(F)(F)F)c(C(F)(F)F)c1C(=O)Nc1cc2c(cc1F)COC2=O [Ik-105] | 3.27^a) | 
22 | Cc1nc(C(F)(F)C(F)(F)F)ncc1C(=O)O [4-Methyl-2-(pentafluoroethyl)pyrimidine-5-carboxylic acid] |  | chromatographic logP [1]: 1.97
23 | Cc1nc(C(F)(F)F)ncc1C(=O)O [4-Methyl-2-(trifluoromethyl)pyrimidine-5-carboxylic acid] |  | chromatographic logP [1]: 1.26
24 | Cn1nc(C(F)(F)C(F)(F)C(F)(F)C(F)(F)F)c(I)c1C(=O)Nc1ccc(Cl)c(C(=O)NCC=CCl)c1 [Ik-269] | 4.27^a) | 

Row | SMILES | logP | other results
25 | Cn1nc(C(F)(F)C(F)(F)F)c(C(F)(F)F)c1C(=O)Nc1cc(F)c(S(C)(=O)=O)c(C(=O)NC2CC2)c1 [Ik-194] | 2.92^a) | 
26 | Cn1nc(C(F)(F)C(F)(F)F)c(C(F)(F)F)c1C(=O)Nc1ccc(Cl)c(C(=O)NCc2ccc(F)cn2)c1 [Ik-80] | 4.75^a) | 
27 | COC(=O)c1cc(NC(=O)c2c(C(F)(F)F)c(C(F)(F)C(F)(F)F)nn2C)ccc1Cl [Methyl 2-chloro-5-({[1-methyl-3-(pentafluoroethyl)-4-(trifluoromethyl)-1H-pyrazol-5-yl]carbonyl}amino)benzoate] |  | chromatographic logP [1]: 4.05
28 | O=C(NCC=CCl)c1cc(NC(=O)c2cnc(C(F)(F)F)nc2C(F)(F)F)ccc1Cl [Ib-5] | 3.19^a) | 
29 | Cn1nc(C(F)(F)C(F)(F)F)c(C(F)(F)F)c1C(=O)Nc1cc(F)c(I)c(C(=O)NCC=CCl)c1 [Ik-224] | 3.99^a) | 
30 | Cn1nc(C(F)(F)F)c(Br)c1C(=O)Nc1ccc(Cl)c(C(=O)NCc2ccccc2)c1 [Ik-23] | 3.44^a) | 
31 | CC(NC(=O)c1cc(NC(=O)c2c(Cl)c(C(F)(F)F)nn2C)ccc1Cl)C(F)(F)F (stereo not shown) [Ik-152] | 3.44^a) | 
32 | O=C(NCc1ccccc1)c1cc(NC(=O)c2cnc(C(F)(F)C(F)(F)F)nc2C(F)(F)C(F)(F)F)ccc1Cl [Ib-35] | 4.20^a) | 
33 | CSc1c(Br)cc(NC(=O)c2c(C(F)(F)F)c(C(F)(F)C(F)(F)F)nn2C)cc1C(=O)NC1CC1 [Ik-198] | 3.87^a) | 
34 | Cn1nc(C(F)(F)C(F)(F)C(F)(F)C(F)(F)F)cc1C(=O)O [1-Methyl-3-nonafluorobutyl-1H-pyrazole-5-carboxylic acid] |  | chromatographic logP (HPLC method a), eluent acetonitrile/water with formic acid): 3.01
35 | O=C(Nc1cc(Br)c(Cl)c(C(=O)NC2CC2)c1)c1cnc(C(F)(F)C(F)(F)F)nc1C(F)(F)F [Ib-36] | 3.62^a) | 
36 | Cc1nc(C(F)(F)F)ccc1C(=O)Nc1ccc(Cl)c(C(=O)NCC(F)(F)F)c1 [Ir-11] | 2.67^a) | 
37 | C=CCc1c(C(F)(F)C(F)(F)F)nn(C)c1C(=O)Nc1ccc(Cl)c(C(=O)NC2CC2)c1 [Ik-262] | 3.37^a) | 
38 | Cc1nc(C(F)(F)C(F)(F)F)nc(C)c1C(=O)Nc1ccc(Cl)c(C(=O)NCC(F)(F)F)c1 [Ib-12] | 3.22^a) | 
39 | O=C(NCC(F)(F)F)c1cc(NC(=O)c2cnc(C(F)(F)C(F)(F)F)nc2C(F)F)ccc1Cl [Ib-28] | 3.27^a) | 
40 | Cn1nc(C(F)(F)OC(F)(F)C(F)(F)OC(F)(F)F)c(Br)c1C(=O)Nc1ccc(Cl)c(C(=O)NC2CC2)c1 [Ik-117] | 4.31^a) | 
41 | O=C(NCC(F)(F)F)c1cc(NC(=O)c2cnc(C(F)(F)C(F)(F)F)nc2C(F)(F)F)ccc1Cl [Ib-9] | 3.53^a) | 
42 | Cn1nc(C(F)(F)C(F)(F)F)c(C(F)(F)F)c1C(=O)Nc1cc(F)c(I)c(C(=O)NC2CC2)c1 [Ik-225] | 3.63^a) | 
43 | Cn1nc(C(F)(Cl)C(F)(F)F)c(Br)c1C(=O)O (stereo not shown) [4-Bromo-1-methyl-3-(1-chloro-1,2,2,2-tetrafluoroethyl)-1H-pyrazole-5-carboxylic acid] |  | chromatographic logP [1]: 2.43
44 | CC(C)N(C(=O)c1c(C(F)(F)F)c(C(F)(F)C(F)(F)F)nn1C)c1ccc(Cl)c(C(=O)NC2CC2)c1 [Ik-137] | 3.74^a) | 
45 | C=CCNC(=O)c1cc(NC(=O)c2ccc(C(F)(F)F)nc2Cl)c(C)cc1Cl [Ir-7] | 2.68^a) | 
46 | Cc1nc(C(F)(F)C(F)(F)F)nc(C)c1C(=O)O [4,6-Dimethyl-2-(pentafluoroethyl)pyrimidine-5-carboxylic acid] |  | chromatographic logP [1]: 1.63
47 | CC(C)NC(=O)c1cc(NC(=O)c2c(Br)c(C(F)(F)C(F)(F)F)nn2C)ccc1Cl [Ik-27] | 3.49^a) | 
48 | Cn1nc(C(F)(F)C(F)(F)F)c(C(F)(F)F)c1C(=O)Nc1cc(Br)cc(C(=O)NCc2ccccc2)c1 [Ik-222] | 4.35^a) | 
